# Test results: patent publication US20210395226A1, “SUBSTITUTED ARYL COMPOUND AND PREPARATION METHOD THEREFOR AND USE THEREOF” (SICHUAN KELUN-BIOTECH BIOPHARMACEUTICAL CO., LTD., priority 2018, published 2021)
# Like-named read-outs stand apart in the source and are kept apart here.
# Key:
# [1] = target: T1, Adenosine A1 receptor (human) membrane (Homo sapiens, UniProt P30542); assay: Determination of competitive inhibition constant (Ki) for adenosine A1 receptor, [3H]-DPCPX radioligand; format: binding; conditions: 1.0 nM [3H]-DPCPX
# T1 construct: purchased PerkinElmer ES-010-M400UA
# T1 sequence (P30542 1-326): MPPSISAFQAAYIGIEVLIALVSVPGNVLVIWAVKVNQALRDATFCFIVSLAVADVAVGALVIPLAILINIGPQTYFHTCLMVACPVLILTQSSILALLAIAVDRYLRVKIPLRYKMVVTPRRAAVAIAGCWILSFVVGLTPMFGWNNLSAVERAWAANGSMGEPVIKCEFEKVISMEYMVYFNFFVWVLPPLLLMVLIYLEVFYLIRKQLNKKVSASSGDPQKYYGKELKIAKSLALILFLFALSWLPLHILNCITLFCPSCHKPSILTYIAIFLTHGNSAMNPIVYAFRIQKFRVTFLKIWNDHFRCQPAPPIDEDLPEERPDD
# Description: (§1) Test Example 1: Determination of Competitive Inhibition Constant (Ki) for Adenosine A1 and A2a Receptors
# [^3H]-DPCPX (PerkinElmer, NET974250UC),
# Adenosine A1 receptor (human) membrane (PerkinElmer, ES-010-M400UA),
# assay buffer for A1 (25 mM HEPES, 5 mM MgCl2, 1 mM CaCl2, 100 mM NaCl, pH7.4), used to dilute adenosine A1 receptor (human) membrane and [^3H]-DPCPX;
# wash buffer for A1 (25 mM HEPES, 5 mM MgCl2, 1 mM CaCl2, 100 mM NaCl, pH7.4);
# (§2) Adenosine A1 receptor membrane was diluted to 0.025 μg/μl with assay buffer for A1, and Adenosine A2a receptor membrane was diluted to 0.05 μg/μl with assay buffer for A2a, so as to obtain Adenosine A1 receptor membrane dilution and Adenosine A2a receptor membrane dilution.
# (§3) The compound to be tested and CGS-15943 were diluted with DMSO, and 1 W of the compound to be tested, high value control (0.5% DMSO), low value control (1000 nM CGS-15943) were added to a 96-well plate, and 100 W of Adenosine A1 receptor membrane dilution (containing 2.5 μg of membrane) was added to each well of the 96-well plate to obtain A1 detection plate; following the same steps, 100 W of Adenosine A2a receptor membrane dilution (containing 5.0 μg membrane) was added to each well of the 96-well plate to obtain A2a detection plate.
# (§4) To the A1 detection plate, 100 μl of radioisotope-labeled ligand [^3H]-DPCPX (diluted with assay buffer for A1, working concentration of which was 1.0 nM) was added; and to the A2a detection plate, 100 μl of radioisotope-labeled ligand [^3H]-CGS-21680 (diluted with assay buffer for A2a, working concentration of which was 6.0 nM) was added. The A1 and A2a detection plates were sealed with tape, and incubated at room temperature for 1 h and 2 h, respectively.
# (§5) Unifilter-96 GF/C filter plates were prepared, 50 μl of 0.3% PEI was added to each well of the Unifilter-96 GF/C filter plates, and the resulting filter plates were incubated at room temperature for not less than 0.5 h.
# (§6) After the incubation was completed, the reaction solution was transferred from the A1 detection plate and the A2a detection plate to two Unifilter-96 GF/C filter plates, and washed with pre-cooled wash buffer for A1 and wash buffer for A2a, and then the filter plates were dried, sealed at bottom, then 50 W of Microscint 20 fluid scintillation cocktail was added, and then the filter plates were sealed at top, and counted by MicroBeta2 Reader.
# (§7) Inhibition rate %=100−(signal value of test well−signal average value of low value control)/(signal average value of high value control−signal average value of low value control)*100.
# (§8) EXCEL XLfit was used to fit IC50.
# (§9) The calculation formula for competitive inhibition constant (Ki) was: Ki=IC50/(1+concentration of isotope-labeled ligand/Kd), wherein Kd was the dissociation constant of the isotope-labeled ligand.
# [2] = target: T2, Adenosine A2a receptor (human) membrane (Homo sapiens, UniProt P29274); assay: Determination of competitive inhibition constant (Ki) for adenosine A2a receptor, [3H]-CGS-21680 radioligand; format: binding; conditions: for Ki(A1)/Ki(A2a): selectivity ratio A1 over A2a
# T2 construct: purchased PerkinElmer RBHA2AM400UA
# Description: as §1
# Adenosine A2a receptor (human) membrane (PerkinElmer, RBHA2AM400UA),
# assay buffer for A2a (50 mM Tris-HCl, 10 mM MgCl2, 1 mM EDTA, pH7.4), used to dilute adenosine A2a receptor (human) membrane (human origin) and [^3H]-CGS-21680; and
# wash buffer for A2a (50 mM Tris-HCl, 154 mM NaCl, pH7.4).
# as §2, §3, §4, §5, §6, §7, §8, §9
# [3] = human A2a receptor membrane, 6.0 nM [3H]-CGS-21680, read-out: Ki(A2a)
# T2 sequence (P29274 whole entry): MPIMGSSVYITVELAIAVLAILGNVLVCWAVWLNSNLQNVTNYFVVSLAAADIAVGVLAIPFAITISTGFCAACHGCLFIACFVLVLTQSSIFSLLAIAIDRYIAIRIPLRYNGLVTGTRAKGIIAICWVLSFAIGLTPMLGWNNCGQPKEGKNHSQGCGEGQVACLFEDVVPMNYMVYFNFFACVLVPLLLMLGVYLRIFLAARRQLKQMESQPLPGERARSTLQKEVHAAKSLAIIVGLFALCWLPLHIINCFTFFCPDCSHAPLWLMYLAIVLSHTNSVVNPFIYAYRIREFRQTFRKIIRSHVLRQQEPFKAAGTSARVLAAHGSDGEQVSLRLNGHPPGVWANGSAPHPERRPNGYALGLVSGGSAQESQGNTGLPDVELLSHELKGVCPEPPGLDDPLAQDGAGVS
Ki [1],"Ki [2, 3]",Ki(A1)/Ki(A2a) [2],SMILES,Ki [2]
5310 nM,8.1 nM,656.1,"Cc1cc(-c2cnc(NC(=O)N(C)Cc3ccccn3)nc2-c2ccc(F)cc2)cc(Cl)n1 [Compound 14, 3-(5-(2-chloro-6-methylpyridin-4-yl)-4-(4-fluorophenyl)pyrimidin-2-yl)-1-methyl-1-(pyridin-2-ylmethyl)urea]",
1370 nM,11.8 nM,115.3,"Cc1cc(-c2c(C#N)cc(NC(=O)N3CCOCC3)nc2-c2ccc(F)cc2)cc(Cl)n1 [Compound 45, N-(2′-chloro-4-cyano-2-(4-fluorophenyl)-6′-methyl-[3,4′-bipyridyl]-6-yl) morpholine-4-carboxamide]",
1230 nM,3.7 nM,331.8,"Cc1ncnc2ccc(-c3cnc(NC(=O)N(C)Cc4ccccn4)nc3-c3ccc(F)cc3)cc12 [Compound 9, 3-(4-(4-fluorophenyl)-5-(4-methylquinazolin-6-yl)pyrimidin-2-yl)-1-methyl-1-(pyridine-2-methyl)urea]",
> 7920 nM,14.3 nM,>553.6,"Cc1ncnc2ccc(-c3cnc(NC(=O)NCc4ccccn4)nc3-c3ccc(F)cc3)cc12 [Compound 6, 1-(4-(4-fluorophenyl)-5-(4-methylquinazolin-6-yl)pyrimidin-2-yl)-3-(pyridine-2-methyl)urea]",
4050 nM,23.3 nM,173.7,"Cc1cc(-c2cnc(NC(=O)N3C[C@@H](C)O[C@@H](C)C3)nc2-c2ccc(F)cc2)cc(Cl)n1 [Compound 37, (2R,6S)-N-(5-(2-chloro-6-methylpyridin-4-yl)-4-(4-fluorophenyl)pyrimidin-2-yl)-2,6-dimethylmorpholine-4-carboxamide]",
422 nM,4 nM,105.5,"Cc1ccc(-c2nc(NC(=O)N3CCC(N4CCCCC4)CC3)nnc2-c2ccc3ncnc(C)c3c2)o1 [Compound 27, N-(5-(5-methylfuran-2-yl)-6-(4-methylquinazolin-6-yl)-1,2,4-triazin-3-yl)-[1,4′-bipiperidine]-1′-carboxamide]",
1320 nM,9.8 nM,134.5,"COC1CCN(C(=O)Nc2ncc(-c3ccc4ncnc(C)c4c3)c(-c3ccc(F)cc3)n2)CC1 [Compound 13, N-(4-(4-fluorophenyl)-5-(4-methylquinazolin-6-yl)pyrimidin-2-yl)-4-methoxypiperidine-1-carboxamide]",
3070 nM,18.9 nM,162.5,"Cc1cc(-c2cnc(NC(=O)N3CCC(C#N)CC3)nc2-c2ccc(F)cc2)cc(Cl)n1 [Compound 18, N-(5-(2-chloro-6-methylpyridin-4-yl)-4-(4-fluorophenyl)pyrimidin-2-yl)-4-cyanopiperidine-1-carboxamide]",
411 nM,5.4 nM,76.2,"Cc1ncnc2ccc(-c3cnc(NC(=O)N4CCO[C@H](C)C4)nc3-c3ccc(F)cc3)cc12 [Compound 40, (R)-N-(4-(4-fluorophenyl)-5-(4-methylquinazolin-6-yl)pyrimidin-2-yl)-2-methylmorpholine-4-carboxamide]",
4670 nM,7.3 nM,639.1,"Cc1cc(Cl)cc(-c2cnc(NC(=O)N3CCC(N4CCCCC4)CC3)nc2-c2ccc(F)cc2)c1 [Compound 21, N-(5-(3-chloro-5-methylphenyl)-4-(4-fluorophenyl)pyrimidin-2-yl)-[1,4′-dipiperidine]-1′-carboxamide]",
814 nM,11 nM,74.0,"Cc1ncnc2ccc(-c3cnc(NC(=O)N4C[C@@H](C)O[C@@H](C)C4)nc3-c3ccc(F)cc3)cc12 [Compound 39, (2R,6S)-N-(4-(4-fluorophenyl)-5-(4-methylquinazolin-6-yl)pyrimidin-2-yl)-2,6-dimethylmorpholine-4-carboxamide]",
698 nM,2.7 nM,258.6,"Cc1ncnc2ccc(-c3cc(F)c(N)nc3-c3ccc(F)cc3)cc12 [Compound 2, 3-fluoro-6-(4-fluorophenyl)-5-(4-methylquinazolin-6-yl)pyridin-2-amine]",
1590 nM,6.6 nM,240.7,"Cc1cc(Cl)cc(-c2cnc(NC(=O)N3CCC(N4CCCCC4)CC3)nc2-c2ccc(C)o2)c1 [Compound 22, N-(5-(3-chloro-5-methylphenyl)-4-(5-methylfuran-2-yl)pyrimidin-2-yl)-[1,4′-bipiperidine]-1′-carboxamide]",
333 nM,2.3 nM,144.6,"Cc1ncnc2ccc(-c3c(Cl)cc(NC(=O)N4CCOCC4)nc3-c3ccc(F)cc3)cc12 [Compound 42, N-(4-chloro-6-(4-fluorophenyl)-5-(4-methylquinazolin-6-yl)pyridin-2-yl) morpholine-4-carboxamide]",
1870 nM,14.7 nM,126.9,"Cc1cc(-c2cnc(NC(=O)N3CCCCC3)nc2-c2ccc(F)cc2)cc(Cl)n1 [Compound 35, N-(5-(2-chloro-6-methylpyridin-4-yl)-4-(4-fluorophenyl)pyrimidin-2-yl) piperidine-1-carboxamide]",
3330 nM,27.7 nM,120.1,"COCCN(C)C(=O)Nc1ncc(-c2ccc3ncnc(C)c3c2)c(-c2ccc(F)cc2)n1 [Compound 31, 3-(4-(4-fluorophenyl)-5-(4-methylquinazolin-6-yl)pyrimidin-2-yl)-1-(2-methoxyethyl)-1-methylurea]",

SMILES,Ki [1],"Ki [2, 3]",Ki(A1)/Ki(A2a) [2],Ki [2]
"Cc1ncnc2ccc(-c3cnc(NC(=O)N(C)c4ccccc4)nc3-c3ccc(F)cc3)cc12 [Compound 12, 3-(4-(4-fluorophenyl)-5-(4-methylquinazolin-6-yl)pyrimidin-2-yl)-1-methyl-1-phenylurea]",1210 nM,8.8 nM,137.6,
"Cc1ncnc2ccc(-c3ccc(NC(=O)N(C)Cc4ccccn4)nc3-c3ccc(F)cc3)cc12 [Compound 29, 3-(6-(4-fluorophenyl)-5-(4-methylquinazolin-6-yl)pyridin-2-yl)-1-methyl-1-(pyridine-2-methyl)urea]",5030 nM,,425.9,11.8 nM
"Cc1ncnc2ccc(-c3cnc(N)nc3-c3ccc(F)cc3)cc12 [Compound 3, 4-(4-fluorophenyl)-5-(4-methylquinazolin-6-yl)pyrimidin-2-amine]",178 nM,1.6 nM,111.3,
"Cc1ncnc2ccc(-c3ccc(NC(=O)N4CCOCC4)nc3-c3ccc(F)cc3)cc12 [Compound 41, N-(6-(4-fluorophenyl)-5-(4-methylquinazolin-6-yl)pyridin-2-yl)morpholine-4-carboxamide]",2530 nM,1.92 nM,1319.0,
"Cc1ncnc2ccc(-c3cc(F)c(NC(=O)N(C)Cc4ccccn4)nc3-c3ccc(F)cc3)cc12 [Compound 4, 3-(3-fluoro-6-(4-fluorophenyl)-5-(4-methylquinazolin-6-yl)pyridin-2-yl)-1-methyl-1-(pyridin-2-ylmethyl)urea]",5680 nM,,417.3,13.6 nM
